{
  "source": "patent US20230243856A1",
  "about": "“IDENTIFYING DIRECT ORAL FACTOR XA INHIBITORS” (Instrumentation Laboratory Company, priority 2022, published 2023)",
  "tested_on": "clotting of a test sample, such as whole blood",
  "assay": "low tissue factor clotting assay with a reagent of diluted tissue factor, CaCl2 and polycation heparin inhibitor (polybrene)",
  "format": "biochemical",
  "details": "for relationship between TTC and concentration in the sample: range shown between 0 and 500 ng/mL, TTC in seconds; for relationship between TTC and concentration in the sample / concentration in the test sample at a measured clotting time of 400 seconds: FIG. 2 / FIG. 3; for concentration in the test sample at a measured clotting time of 400 seconds: read from plot of TTC versus concentration; for plot of TTC versus concentration with 1 IU UFH or 0 IU UFH in the test sample: test sample with 1 IU unfractionated heparin or no heparin, region 400 / 500 of FIG. 4 / FIG. 5",
  "excerpt": "The clotting assay uses a reagent to initiate the clotting of a test sample, such as whole blood or a sample derived from whole blood (e.g., plasma). A low tissue factor assay is an example of a clotting assay. […] The low tissue factor assay monitors the clotting of a mixture of the test sample and the reagent and determines clotting parameters based on that clotting. The TTC parameters can be different on different clinical analyzer systems and for different low tissue factor assays. For example, TTC parameter(s) for low tissue factor assays performed using the ROTEM® sigma and the RQTEM® delta systems by Werfen® include clotting time (CT) (where CT is the latency time from adding reagent to sample until the clot starts to form); TTC parameter(s) for low tissue factor assays performed using the TEG® 6s system by Haemonetics® include reaction time (R) and clotting time (CT); and TTC parameter(s) for low tissue factor assays performed using the Quanta® system by the Hemoscnics® system include dot time (CT). An example of the reagent that may be used in the low tissue factor assay (referred to below as “the assay”) to initiate clotting of the test sample includes the following constituents: a diluted tissue factor (“the tissue factor”), calcium chloride (CaCl2), and a heparin inhibitor. The tissue factor activates the extrinsic pathway; the heparin inhibitor reduces or eliminates the sensitivity of the assay to heparin or at least certain concentrations of heparin in the test sample; and CaCl2 recalcifies the sample as required for blood clotting to occur. An example of a type of heparin inhibitor that may be used in the reagent is polycation. An example of a polycation that may be used in the reagent includes, but is not limited to, polybrene. […] In this example, process 100 includes receiving (100a) a test sample having an unknown anti-Xa DOAC at an unknown concentration. The test sample may be received in a diagnostic testing/clinical analyzer system or a manual testing system. The test sample may be any of the types of test samples described herein. The system performs a low tissue factor assay on the test sample. This includes causing the test sample to contact a reagent such as the example reagents described herein. The test sample mixes (100b) with the reagent. The mixing may be performed automatically or manually by physically moving the test sample and the reagent using a mixing element mechanism, e.g., agitation, flow, or the like. The resulting liquid, which is a mixture of the sample and the reagent, begins to clot. The clotting parameters(s), such as TTC, CFT, and/or amplitudes, of clots formed from the liquid may be measured (100c) by the diagnostic testing/clinical analyzer system or manually. The plots of FIGS. 4 to 6, which are described below, are associated with various experiments using the low tissue factor assay and the example reagents described herein containing the tissue factor, CaCl2, and a heparin inhibitor, such as polybrene or other polycation.",
  "data": [
    {"smiles": "COc1ccc(-n2nc(C(N)=O)c3c2C(=O)N(c2ccc(N4CCCCC4=O)cc2)CC3)cc1", "note": "[apixaban]", "values": [
      {"measurement": "relationship between TTC and concentration in the sample", "result": "linear"},
      {"measurement": "concentration in the test sample at a measured clotting time of 400 seconds", "result": "about 160 ng/mL"},
      {"measurement": "plot of TTC versus concentration with 1 IU UFH or 0 IU UFH in the test sample", "result": "substantially linear"}
    ]},
    {"smiles": "O=C(NC[C@H]1CN(c2ccc(N3CCOCC3=O)cc2)C(=O)O1)c1ccc(Cl)s1", "note": "[rivaroxaban]", "values": [
      {"measurement": "relationship between TTC and concentration in the sample", "result": "linear"},
      {"measurement": "concentration in the test sample at a measured clotting time of 400 seconds", "result": "about 50 ng/mL"},
      {"measurement": "plot of TTC versus concentration with 1 IU UFH or 0 IU UFH in the test sample", "result": "substantially linear"}
    ]}
  ]
}
